Assays:
[1] = test system: primary culture of cortical neurons; experiment: Neuronal survival evaluation via trypan blue (cell membrane integrity) in in vitro model of ischemia/reperfusion (OGD); format: cell-based, mouse; conditions: for overall conclusion: neuroprotective effect against cerebral ischemia: conclusion drawn from all of the results (Examples 2 to 8); for neuronal protection (trypan blue): Example 7, FIG. 7, 4 h of OGD then 24 h of reperfusion
Method: (§1) More specifically, the cells taken are grown in a Neurobasal™ medium (ref. 21103049 ThermoFisher Scientific) to which L-glutamine and B27 supplement 50X (ref. 17504044 ThermoFisher Scientific) have been added (step 2). The neurons from the primary culture are then isolated and purified. It should be noted that it is the culture conditions in themselves which make it possible to obtain a purified culture of neurons from the dissociation of the embryonic cortexes. Oxygen and glucose deprivation (OGD) is then carried out (step 3) on these neurons in order to mimic as closely as possible what happens in vivo during a stroke, that is to say a decrease in oxygen and glucose supply due to a decrease in blood perfusion for the cells. In order to carry out this oxygen and glucose deprivation mimicking ischemia, the neurons are placed, for 4 h, in an incubator of which the atmosphere has an oxygen content of approximately 1% and with the culture medium being replaced with a glucose-free medium (step 3). Since the ischemia model is an “ischemia/reperfusion” model, the neurons are then placed in a medium containing glucose under normoxic conditions for 24 h (reperfusion) (step 4) following the ischemia step. Neuron group A is a group of neurons having been treated with a solution of compound of formula (I) during the OGD and the reperfusion, that is to say that a molecule of table 1 is added to glucose-free medium as soon as the oxygen and glucose deprivation begins (step 3). […] The concentration of the other molecules of table 1 is 100 nmol·L^−1 in the glucose-free medium. Neuron group B is a group of neurons having been treated with a solution of DX243 during the reperfusion only (step 4), in order to be closer to what occurs clinically, namely the possible treatment only after several hours with a conventional treatment. The DX243 solution is added to the glucose-free medium as soon as the reperfusion begins (step 4). The DX243 concentration is between 1 nmol. L^−1 and 1 μmol·L^−1 in the glucose-free medium.
(§2) The negative control consists of a group of neurons undergoing OGD (step 3) followed by reperfusion (step 4) without DX243 being present. This group of neurons is called “Ctrl” in FIGS. 2 to 4. The normal control consists of a group of neurons from the primary culture placed under normoxic conditions for 28 h. The normal control is called “normox” in FIGS. 2 to 4. The positive control consists of a group of neurons from the primary culture having undergone OGD for 4 h (step 3) in the presence of roscovitine, which is a cell cycle inhibitor, leading to neuronal protection, followed by reperfusion for 24 h (step 4). The positive control is called “ROSCO” in FIGS. 2 to 4.
(§3) At the end of the reperfusion (step 4), 24 h after the OGD, the survival of the neurons is evaluated by means of three different tests: an immunocytochemical test 5, an MTT (3-(4,5-dimethylthiazol-2-yl)-2,5-diphenyltetrazolium bromide) test 6 and a test based on the cell membrane integrity via the use of trypan blue 7. The results are then compared to the results of the three control-group survival tests.
A third cell survival test in the case of the use of DX243, based on cell membrane integrity, which is ruptured in dead cells, was carried out. The latter test uses trypan blue which will stain the dead cells blue. The calculation of the percentage of live cells was consequently performed by counting the proportion of blue and non-blue cells, and related to the percentage of live cells observed in the normox group. The results obtained were reported in graph A of FIG. 4 for group A and in graph B of FIG. 4 for group B.
For all the molecules of table I other than DX243 used on group A, the third cell survival test was carried out. The results obtained were reported on the graph of FIG. 5, with the results obtained with DX243 being included therein. The sign NT means not treated. […]

[2] = test system: primary culture of cortical neurons; experiment: MTT neuronal survival evaluation test in in vitro model of ischemia/reperfusion (OGD); format: cell-based, mouse; conditions: for neuronal protection (MTT): Example 6, FIG. 6, 100 nM, 4 h of OGD then 24 h of reperfusion
Method: as §1, §2, §3
In order to confirm the results obtained with DX243, a test based on the metabolic activity of the neurons was carried out to evaluate neuronal survival in another way. This test is based on the use of the tetrazolium salt MTT (3-(4,5-dimethylthiazol-2-yl)-2,5-diphenyltetrazolium bromide). The tetrazolium is reduced, by the mitochondrial succinate dehydrogenase of the active live cells, into formazan, a purple-colored precipitate. The amount of precipitate formed is proportional to the amount of live cells but also to the metabolic activity of each cell. Thus, a simple assay of the optical density at 550 nm by spectroscopy makes it possible to determine the relative amount of live and metabolically active cells. […]

[3] = test system: male murine model of stroke, called Middle Cerebral Artery Occlusion (MCAO); experiment: In vivo stroke test, Middle Cerebral Artery Occlusion (MCAO) followed by reperfusion; parameters: species or system mouse; conditions: DX243 50 mg/Kg at reperfusion after 1 h occlusion
[4] = test system: primary culture of cortical neurons; experiment: Immunocytochemical test for neuronal survival (DAPI, CC3, TUJ1) in in vitro model of ischemia/reperfusion (OGD); format: cell-based, mouse
Method: as §1
The negative control consists of a group of neurons undergoing OGD (step 3) followed by reperfusion (step 4) without DX243 being present. This group of neurons is called “Ctrl” in FIGS. 2 to 4. […]
as §3, with “The results are then compared to the results of the three control-group survival tests.” left out
A first series of images is taken with chemical labelling by fluorescence. […] A second series of images is taken with labelling by fluorescence using the CC3 antibody. […]

[5] = Example 5, FIG. 5, group A, 100 nmol·L^−1 during 4 h OGD and 24 h reperfusion
[6] = concentration not printed in the sentence (100 nmol·L^−1 per Example 1)
[7] = observed at 24 h, vs non-treated (Ctrl) mice
[8] = 4 h OGD + 24 h reperfusion, DX243 treatment compared with the Ctrl group

Row | SMILES | overall conclusion: neuroprotective effect against cerebral ischemia [1] | neuronal protection (MTT) [2] | survival rate compared with DX243 [1, 5] | also measured
1 | CC(C)CCCC(C)[C@H]1CCC2C3C[C@@H](NCCCNCCCCNCCCN)[C@@]4(O)C[C@@H](O)CC[C@]4(C)C3CC[C@@]21C (some centres unmarked) [DX301] | neuroprotective effect against cerebral ischemia | neuroprotective effect | – | –
2 | CC(C)CCCC(C)[C@H]1CCC2C3=C[C@@H](NCCCNCCCCN)[C@@]4(O)C[C@@H](O)CC[C@]4(C)C3CC[C@@]21C (some centres unmarked) [DX242] | neuroprotective effect against cerebral ischemia | neuroprotective effect | greater than that of DX243 | neuronal protection (trypan blue) [1, 6]: neuroprotective effect
3 | CC(C)CCCC(C)[C@H]1CCC2C3=C[C@@H](NCCCCNCCCN)[C@@]4(O)C[C@@H](O)CC[C@]4(C)C3CC[C@@]21C (some centres unmarked) [DX244] | neuroprotective effect against cerebral ischemia | neuroprotective effect | greater than that of DX243 | neuronal protection (trypan blue) [1, 6]: neuroprotective effect
4 | CC(=O)NCCCNCCCCN[C@@H]1CC2C3CC[C@H](C(C)CCCC(C)C)[C@@]3(C)CCC2[C@@]2(C)CC[C@H](O)C[C@]12O (some centres unmarked) [DX249] | neuroprotective effect against cerebral ischemia | neuroprotective effect | – | –
5 | CC(C)CCCC(C)[C@H]1CCC2C3C[C@@H](NCCCN(CCCCNC(=O)OC(C)(C)C)C(=O)OC(C)(C)C)[C@@]4(O)C[C@@H](O)CC[C@]4(C)C3CC[C@@]21C (some centres unmarked) [DX243BOC] | – | – | lower than that of the group treated with DX243 | survival rate compared with NT neurons having undergone OGD and reperfusion [1, 5]: lower than that of the group treated with DX243 and than that of the NT group having undergone OGD and reperfusion
6 | CC(C)CCCC(C)[C@H]1CCC2C3C[C@@H](NCCCNCCCCN)[C@@]4(O)C[C@@H](O)CC[C@]4(C)C3CC[C@@]21C (some centres unmarked) [DX243] | neuroprotective effect against cerebral ischemia | significant neuronal protection | – | behavioral deficits (neuroscore) ([3]; observed at 24 h, living mice, vs non-treated (Ctrl) mice): decrease in the behavioral deficits; percentage of dead mice [3, 7]: decrease in the percentage of dead mice; size of the lesion (infarcted region, TTC staining) [3, 7]: decrease in the size of the lesion; correlation between the decrease in blood flow (Laser Doppler Flowmetry) and the consequences of the stroke ([3]; treated mice): there does not appear to be any correlation; percentage of live cells (membrane integrity) related to normox group ([1]; 4 h OGD + 24 h reperfusion, groups A and B, mainly 1 to 100 nmol·L^−1): restores the percentage of live cells to levels close to that observed in the normox group; neuronal protection (trypan blue) ([1]; 1000 nM): neuroprotective effect; neuronal protection (trypan blue) ([1]; concentrations ranging from 1 to 100 nM): significant neuronal protection; protection against neuronal death ([4]; 4 h OGD + 24 h reperfusion, DX243 during OGD and reperfusion, or only during reperfusion, vs Ctrl group): partially protect against neuronal death; proportion of cells undergoing apoptosis (CC3 antibody, activated caspase 3) [4, 8]: decrease in the proportion of cells undergoing apoptosis; proportion of live cells [4, 8]: increase in the proportion of live cells; neuron protection, post-OGD treatment for 24 h (reperfusion only) compared with treatment during OGD and reperfusion ([4]; group B, DX243 only during 24 h reperfusion): protects the neurons even more efficiently; protection against decrease of metabolically active cells (survival) following OGD ([2]; 4 h OGD + 24 h reperfusion, groups A and B, vs Ctrl group): partially protects against this decrease in survival; effect in group treated only during reperfusion compared with group A ([2]; group B, DX243 only during the reperfusion for 24 h): all the more marked
7 | CC(C)CCCC(C)[C@H]1CCC2C3C[C@@H](NCCCCNCCCN)[C@@]4(O)C[C@@H](O)CC[C@]4(C)C3CC[C@@]21C (some centres unmarked) [DX245] | neuroprotective effect against cerebral ischemia | significant neuronal protection | greater than that of DX243 | neuronal protection (trypan blue) ([1]; 10 nM): neuroprotective effect; neuronal protection (trypan blue) ([1]; 100 nM): significant neuronal protection; neuronal protection (trypan blue) ([1]; 1000 nM): neuroprotective effect
8 | CC(C)CCCC(C)[C@H]1CCC2C3C[C@@H](NCCCCN)[C@@]4(O)C[C@@H](O)CC[C@]4(C)C3CC[C@@]21C (some centres unmarked) [DX401] | neuroprotective effect against cerebral ischemia | neuroprotective effect | – | –
9 | CC(C)CCCC(C)[C@H]1CCC2C3C[C@@H](NCCc4cnc[nH]4)[C@@]4(O)C[C@@H](O)CC[C@]4(C)C3CC[C@@]21C (some centres unmarked) [DX101] | neuroprotective effect against cerebral ischemia | neuroprotective effect | – | –
10 | CC(C)CCCC(C)[C@H]1CCC2C3=C[C@@H](NCCCNCCCCNCCCN)[C@@]4(O)C[C@@H](O)CC[C@]4(C)C3CC[C@@]21C (some centres unmarked) [DX302] | neuroprotective effect against cerebral ischemia | neuroprotective effect | – | –
